In patent publication US20020122830A1, “Method for the treatment of a soil containing soilborne pathogens” (priority 2000, published 2002):
Read-outs that look alike come from different tables or passages of the source.

Legend:
V. dahliae MS [1] = details: glycine buffer pH 8.6, exposure of four days
Protocol: Various concentrations of NH3 were generated in glycine or tricine buffer solution at pH 8.6 with NH4Cl or (NH4)2SO4 added. A 15 mL test tube was filled with appropriate buffer and NH4^+ solution, microsclerotia added, the tube capped, then placed in the dark at 24° C. and the tubes inverted daily to suspend the microsclerotia in solution. Microsclerotia survival was determined by emptying contents of the tube into a Buchner funnel, the microsclerotia being retained on Whatman #42 filter paper, rinsed with distilled water, transferred to SPT medium by placing the filter paper in contact with the agar medium and removed leaving the microsclerotia adhering to the medium.
The final volume was brought to 50 mL with the same glycine solution. Solutions were then sterilized by filtration through a 0.22 um pore size filter and 15 mL placed into three replicate sterile screw cap tubes (total capacity 15.5 mL) About 200 V. dahliae MS were immediately added to each tube and the tube closed and placed at 24° C. and in the dark. Tubes were inverted every 12 hours to mix and suspend V. dahliae MS in the solution. […] At 8 hours, 1 and 4 days, the contents of each tube was passed onto a Buchner funnel containing sterile filter paper (Whatman #42). […] The viability of V. dahliae MS was determined as the percentage of MS forming colonies out of 50 counted per replicate dish. […]

[2] = test system: V. dahliae microsclerotia; experiment: Viability of V. dahliae microsclerotia buried in amended soil (test tube bioassay); type: cell-based, Verticillium dahliae; details: for Ammonia level in soil coinciding with a rapid loss in the viability of microsclerotia: soil amended with MBM or SM
Protocol: The viability of V. dahliae microsclerotia retrieved from soil was determined using the following experimental model system. […] Microsclerotia suspended in crushed silica sand was added to a nylon pouch which was then buried in the soil or suspended in the head space of each tube. Water was added to each tube to bring soil moisture to 0.33 bar tension. The tubes were then loosely capped, and placed in the dark at 24° C. On each date of analysis, the nylon pouches were retrieved and an Anderson air sampler used to impact the pouch contents onto a medium (soil-pectate-tergitol) selective for growth of V. dahliae. […] The levels of NH3, NO2^− and NO3^− in soil were determined at each sample date. […] The slurry was once again mechanically disrupted and its pH determined. The slurry was centrifuged and supernatant analyzed for total (NH3+NH4^+), (NHO2+NO2^−) and NO3^− using an ion chromatograph.

V. dahliae MS [3] = details: agar medium, germination recorded two weeks later
Protocol: NH3 was generated in SPT medium by addition of various concentrations of NH4Cl to the medium and varying the pH of the medium (7, 7.6, 8 and 8.5). Immediately following cooling and hardening of the medium, 25 microsclerotia per Petri dish were transferred individually with a needle and germination recorded two weeks later.
Various amountes of NH4Cl salt (to 0, 25, 50, 100 and 200 mM) was added to soil peclate medium (SPT) and the pH of the medium adjusted to 7.0, 7.6, 8.0 or 8.5 by addition of 5 M NaOH. For each level of NH4Cl and pH, three replicate dishes were poured. The agar was allowed to solidify for 2 hours and immediately thereafter 25 V. dahliae MS were individually transferred to each dish using a sterile hypodermic needle. The dishes were wrapped with Parafilm (American National Can, Neenah Wis.) to limit loss of NH3 by volatilization, and incubated for two weeks at 24° C. in the dark. The viability of V. dahliae MS was determined as percent of total MS forming colonies. The concentration of NH3 in medium was estimated as described below and ranged from 0 to 31 mM. The pH of medium after hardening and two weeks after incubation was tested using pH test strips (ColorpHast pH 5-10; EM Science, Gibbstown N.J.) and was within 0.5 units (limit of resolution of the test strips) of that set at the start.

V. dahliae MS [4] = details: sealer jars, 30 mL solution, four days, room temperature
Protocol: Exposure of V. dahliae MS to HNO2 gas was done using a similar procedure described above. To sealer jars (250 mL), 50 mL of a prepared solution of NaNO2 in citric acid solution was added. A V. dahliae MS bag was suspended in the atmosphere of the jar. The jar was sealed, and placed at 24° C. in the dark for 4 days. Thereafter the bags were retrieved and the viability of V. dahliae MS determined. This experiment was repeated and done in triplicate.
Various amounts of HNO2 in atmosphere were subjected to microsclerotia by suspending microsclerotia in sealer jars containing 30 mL of citric acid HNO2 buffer solution and incubated in the dark at room temperature for four days.

V. dahliae MS [5] = test system: V. dahliae MS
Protocol: The germination of V. dahliae MS was determined using a setup similar to that described above for exposure of V. dahliae MS to NH3 in buffered solution. Exceptions being various amounts of 0.270 M NaNO2 stock solution were added (from 0 to 2.0 mL) to 40 mL of 0.02 M citric acid solution (set to pH 5.0 with NaOH (Perrin and Dempsey 1974)) and brought to 50 mL volume with the same citric acid solution. All experiments were done in triiplicate and repeated. Solutions were filter sterilized and 15 mL placed into sterile screw cap tubes (total capacity 15.5 mL). Immediately, V. dahliae MS were added to each tube, the tube closed, placed at 24° C. and in the dark and inverted twice daily. At 8 hours, 1 and 4 days, V. dahliae MS viability was determined. The concentration of HNO2 in solutions was estimated as described below. The effect of NO2^− on survival of V. dahliae MS was tested by adding various amounts of NaNO2 (0 to 53 mM NO2^−) to citric acid buffer and pH set to 4.0, 5.0 and 6.0. The effect of type of NO2^− salt on survival of V. dahliae MS was tested by adding KNO2 or NaCl instead of NaNO2 to citric acid buffer (set to pH 5.0). […]
Various concentrations of HNO2 were generated in citric acid buffer solution at pH 4.0, 5.0 or 6.0 with NaNO2 added. […] Microsclerotia survival was determined as described previously for NH3 in glycine buffer.

N [NH3, Ammonia]
NH3 concentration preventing germination of microsclerotia (V. dahliae MS [1]): greater than 5 mM | NH3 accumulation consistently accompanied with a rapid decline in the viability of microsclerotia in soil ([2]; in soil): greater than 10 mM | Ammonia level in soil coinciding with a rapid loss in the viability of microsclerotia [2]: > 20 mM | Ammonia level in soil coinciding with a rapid loss in the viability of microsclerotia ([2]; listed as Ammonia): > 65 mg N kg^−1 soil | NH3 concentration preventing germination of microsclerotia (V. dahliae MS [3]): > 3 mM

N.O [NH4OH, ammonium hydroxide]
addition sufficient to induce levels of NH3 sufficient to kill microsclerotia ([2]; Thorndale or Beauseart soil, incubated four days (data not shown)): about 1800 mg NH4OH—N kg^−1

N.N.O=S(=O)(O)O [(NH4)2SO4]
kill of microsclerotia ([2]; 400 or 800 mg N kg^−1, air-dried Beauseart soil stored 1.5 years): failed to accumulate HNO2 and kill microsclerotia | kill of microsclerotia ([2]; 400 or 800 mg N kg^−1, recently collected Mackenzie soil): death of microsclerotia

O=NO [HNO2, nitrous acid]
HNO2 solution concentration above which suspended microsclerotia died in atmosphere (V. dahliae MS [4]): 0.10 mM | HNO2 concentration sufficient to kill all microsclerotia (V. dahliae MS [5]): about 0.025 mM | calculated HNO2 concentration required to kill all microsclerotia (V. dahliae MS [5]): above 0.10 mM
